Laboratory results published in US20230015478A1, “GLP-1 RECEPTOR AGONISTS HAVING IMPROVED PHARMACOLOGICAL AND DRUG DELIVERY PROPERTIES” (priority 2021, published 2023).
Square brackets hold non-standard residues; d marks the D form. Peptide text beside a SMILES is read from it. Phe(F5) = N[C@@H](Cc1c(F)c(F)c(F)c(F)c1F)C(=O)O; Bip = N[C@@H](Cc1ccc(-c2ccccc2)cc1)C(=O)O; αMePhe(2-F) = C[C@](N)(Cc1ccccc1F)C(=O)O; hPhe = N[C@@H](CCc1ccccc1)C(=O)O; AEEA = NCCOCCOCC(=O)O; Aib = CC(C)(N)C(=O)O

Molecular target: T1, hGLP1 receptor (Homo sapiens, UniProt P43220)
T1 construct: expressed in transfected cells; host or cells: HEK (human embryonic kidney) cells co-expressing hGLP1 receptor and CRE-Luciferase
Assay: cAMP HTRF agonist assay in HEK cells co-expressing hGLP1 receptor and CRE-Luciferase
Format: cell-based
Conditions: for EC50: cAMP EC50, nM (0.1% albumin), 0.1% albumin
In short: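 HEK cells co-expressing hGLP1R and CRE-luciferase, 1000 cells/well in DPBS with 500 μM IBMX, exposed to peptides or exendin-4 reference for 30 min; 11-point 1:3 series from top 1.0 μM. cAMP measured by HTRF (665/615 nm) after 1 h at room temperature; EC50 from 4-parameter logistic fit.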

T1 sequence (P43220 24-463): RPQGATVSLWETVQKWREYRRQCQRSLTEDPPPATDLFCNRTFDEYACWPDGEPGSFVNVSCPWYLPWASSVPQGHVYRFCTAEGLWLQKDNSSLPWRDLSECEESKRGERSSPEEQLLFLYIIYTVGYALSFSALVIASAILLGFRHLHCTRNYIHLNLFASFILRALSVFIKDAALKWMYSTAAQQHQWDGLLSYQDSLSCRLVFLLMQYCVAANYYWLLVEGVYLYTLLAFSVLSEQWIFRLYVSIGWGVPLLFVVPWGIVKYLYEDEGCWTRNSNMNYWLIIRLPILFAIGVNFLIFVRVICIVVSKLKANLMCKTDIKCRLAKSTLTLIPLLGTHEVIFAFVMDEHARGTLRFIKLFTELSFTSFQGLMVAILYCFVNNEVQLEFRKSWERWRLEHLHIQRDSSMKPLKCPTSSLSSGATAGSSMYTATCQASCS

Row | EC50 (Table 4) | EC50 (Table 1) | SMILES | also measured
1 | – | – | C[C@@H](O)[C@H](NC(=O)[C@](C)(Cc1ccccc1F)NC(=O)C(C)(C)NC(=O)CNC(=O)[C@H](CCC(=O)O)NC(=O)C(C)(C)NC(=O)[C@@H](N)Cc1c[nH]cn1)C(=O)N[C@@H](CO)C(=O)N[C@@H](CC(=O)O)C(=O)N[C@@H](Cc1ccc(-c2ccccc2)cc1)C(=O)N[C@@H](Cc1ccc(-c2ccccc2)cc1)C(N)=O [3-33, H2N-His-Aib-Glu-Gly-Aib-αMePhe(2-F)-Thr-Ser-Asp-Bip-Bip-C(O)NH2] (H-H[Aib]EG[Aib][αMePhe(2-F)]TSD[Bip][Bip]-NH2) | EC50 (Table 3): 7.3 nM
2 | 40.1 nM | – | C[C@@H](O)[C@H](NC(=O)CNC(=O)[C@H](CCC(=O)O)NC(=O)C(C)(C)NC(=O)[C@H](Cc1c[nH]cn1)NC(=O)[C@@H](N)CCC(=O)O)C(=O)N[C@@H](Cc1ccccc1)C(=O)N[C@H](C(=O)N[C@@H](CO)C(=O)N[C@@H](CC(=O)O)C(=O)N[C@@H](Cc1ccc(-c2ccccc2)cc1)C(=O)N[C@@H](Cc1ccc(-c2ccccc2)cc1)C(N)=O)[C@@H](C)O [2-2, H2N-Glu-His-Aib-Glu-Gly-Thr-Phe-Thr-Ser-Asp-Bip-Bip-C(O)NH2] (H-EH[Aib]EGTFTSD[Bip][Bip]-NH2) | –
3 | – | 67.6 nM | C[C@@H](O)[C@H](NC(=O)CNC(=O)[C@H](CCC(=O)O)NC(=O)C(C)(C)NC(=O)[C@@H](N)Cc1c[nH]cn1)C(=O)N[C@@H](Cc1c[nH]c2ccccc12)C(=O)N[C@H](C(=O)N[C@@H](CO)C(=O)N[C@@H](CC(=O)O)C(=O)N[C@@H](Cc1ccc(-c2ccccc2)cc1)C(=O)N[C@@H](Cc1ccc(-c2ccccc2)cc1)C(N)=O)[C@@H](C)O [3-14, H2N-His-Aib-Glu-Gly-Thr-Trp-Thr-Ser-Asp-Bip-Bip-C(O)NH2] (H-H[Aib]EGTWTSD[Bip][Bip]-NH2) | –
4 | – | – | C[C@@H](O)[C@H](NC(=O)CNC(=O)[C@H](CCC(=O)O)NC(=O)C(C)(C)NC(=O)[C@@H](N)Cc1c[nH]cn1)C(=O)N[C@@](C)(Cc1ccccc1F)C(=O)N[C@H](C(=O)NC(C)(C)C(=O)N[C@@H](CC(=O)O)C(=O)N[C@@H](Cc1ccc(-c2ccccc2)cc1)C(=O)N[C@@H](Cc1ccc(-c2ccccc2)cc1)C(N)=O)[C@@H](C)O [3-36, H2N-His-Aib-Glu-Gly-Thr-αMePhe(2-F)-Thr-Aib-Asp-Bip-Bip-C(O)NH2] (H-H[Aib]EGT[αMePhe(2-F)]T[Aib]D[Bip][Bip]-NH2) | EC50 (Table 3): 150 nM
5 | 0.37 nM | – | CC(C)[C@H](NC(=O)[C@@H](N)Cc1c[nH]cn1)C(=O)N[C@@H](CCC(=O)O)C(=O)NCC(=O)N[C@H](C(=O)N[C@@](C)(Cc1ccccc1F)C(=O)N[C@H](C(=O)N[C@@H](CO)C(=O)N[C@@H](CC(=O)O)C(=O)N[C@@H](Cc1ccc(-c2ccccc2)cc1)C(=O)N[C@@H](Cc1ccc(-c2ccccc2)cc1)C(N)=O)[C@@H](C)O)[C@@H](C)O [3-39, H2N-His-Val-Glu-Gly-Thr-α-MePhe(2-F)-Thr-Ser-Asp-Bip-Bip-C(O)NH2] (H-HVEGT[αMePhe(2-F)]TSD[Bip][Bip]-NH2) | potency compared with the parent peptide analog (1-2) (replacement of Aib2, in words): slightly less potency
6 | – | – | C[C@@H](O)[C@H](NC(=O)CNC(=O)[C@H](CCC(=O)O)NC(=O)C(C)(C)NC(=O)[C@@H](N)Cc1c[nH]cn1)C(=O)N[C@@](C)(Cc1ccccc1F)C(=O)N[C@H](C(=O)N[C@@H](CO)C(=O)N[C@@H](CC(=O)O)C(=O)N[C@@H](Cc1ccc(-c2ccccc2)cc1)C(=O)N[C@@H](Cc1ccc(-c2ccccc2)cc1)C(=O)NCCOCCOCC(=O)NCCOCCOCC(=O)N[C@@H](CCCCN)C(N)=O)[C@@H](C)O [4-30, H2N-His-Aib-Glu-Gly-Thr-α-MePhe(2F)-Thr-Ser-Asp-Bip-Bip-C(O)(AEEA)2-Lys-NH2] (H-H[Aib]EGT[αMePhe(2-F)]TSD[Bip][Bip][AEEA][AEEA]K-NH2) | EC50 (Table 6): 14 nM
7 | 21.1 nM | – | C[C@@H](O)[C@H](NC(=O)CNC(=O)[C@H](CCC(=O)O)NC(=O)C(C)(C)NC(=O)[C@H](Cc1c[nH]cn1)NC(=O)CN)C(=O)N[C@@H](Cc1ccccc1)C(=O)N[C@H](C(=O)N[C@@H](CO)C(=O)N[C@@H](CC(=O)O)C(=O)N[C@@H](Cc1ccc(-c2ccccc2)cc1)C(=O)N[C@@H](Cc1ccc(-c2ccccc2)cc1)C(N)=O)[C@@H](C)O [2-3, H2N-Gly-His-Aib-Glu-Gly-Thr-Phe-Thr-Ser-Asp-Bip-Bip-C(O)NH2] (H-GH[Aib]EGTFTSD[Bip][Bip]-NH2) | –
8 | – | 32.6 nM | C[C@@H](O)[C@H](NC(=O)CNC(=O)[C@H](CCC(=O)O)NC(=O)C(C)(C)NC(=O)[C@@H](N)Cc1c[nH]cn1)C(=O)N[C@@H](CCc1ccccc1)C(=O)N[C@H](C(=O)N[C@@H](CO)C(=O)N[C@@H](CC(=O)O)C(=O)N[C@@H](Cc1ccc(-c2ccccc2)cc1)C(=O)N[C@@H](Cc1ccc(-c2ccccc2)cc1)C(N)=O)[C@@H](C)O [3-11, H2N-His-Aib-Glu-Gly-Thr-hPhe-Thr-Ser-Asp-Bip-Bip-C(O)NH2] (H-H[Aib]EGT[hPhe]TSD[Bip][Bip]-NH2) | –
9 | – | – | C[C@@H](O)[C@H](NC(=O)CNC(=O)[C@H](CCC(=O)O)NC(=O)C(C)(C)NC(=O)[C@@H](N)Cc1c[nH]cn1)C(=O)N[C@@](C)(Cc1ccccc1F)C(=O)N[C@H](C(=O)N[C@@H](CO)C(=O)N[C@@H](CC(=O)O)C(=O)N[C@@H](Cc1ccc(-c2ccccc2)cc1)C(=O)N[C@@H](Cc1ccc(-c2ccccc2)cc1)C(=O)N[C@@H](CCCCN)C(N)=O)[C@@H](C)O [4-28, H2N-His-Aib-Glu-Gly-Thr-α-MePhe(2F)-Thr-Ser-Asp-Bip-Bip-Lys-NH2] (H-H[Aib]EGT[αMePhe(2-F)]TSD[Bip][Bip]K-NH2) | EC50 (Table 6): 16.1 nM
10 | – | 1.8 nM | C[C@@H](O)[C@H](NC(=O)CNC(=O)[C@H](CCC(=O)O)NC(=O)C(C)(C)NC(=O)[C@@H](N)Cc1c[nH]cn1)C(=O)N[C@@H](Cc1c(F)c(F)c(F)c(F)c1F)C(=O)N[C@H](C(=O)N[C@@H](CO)C(=O)N[C@@H](CC(=O)O)C(=O)N[C@@H](Cc1ccc(-c2ccccc2)cc1)C(=O)N[C@@H](Cc1ccc(-c2ccccc2)cc1)C(N)=O)[C@@H](C)O [3-10, H2N-His-Aib-Glu-Gly-Thr-Phe(2,3,4,5,6-F)-Thr-Ser-Asp-Bip-Bip-C(O)NH2] (H-H[Aib]EGT[Phe(F5)]TSD[Bip][Bip]-NH2) | –
11 | 10.6 nM | – | C[C@@H](O)[C@H](NC(=O)CNC(=O)[C@H](CCC(=O)O)NC(=O)C(C)(C)NC(=O)[C@H](Cc1c[nH]cn1)NC(=O)[C@@H](N)CCCNC(=N)N)C(=O)N[C@@H](Cc1ccccc1)C(=O)N[C@H](C(=O)N[C@@H](CO)C(=O)N[C@@H](CC(=O)O)C(=O)N[C@@H](Cc1ccc(-c2ccccc2)cc1)C(=O)N[C@@H](Cc1ccc(-c2ccccc2)cc1)C(N)=O)[C@@H](C)O [2-1, H2N-Arg-His-Aib-Glu-Gly-Thr-Phe-Thr-Ser-Asp-Bip-Bip-C(O)NH2] (H-RH[Aib]EGTFTSD[Bip][Bip]-NH2) | –

Row | SMILES | EC50 (Table 4) | EC50 (Table 1) | also measured
12 | C[C@@H](O)[C@H](NC(=O)CNC(=O)[C@H](CCC(=O)O)NC(=O)C(C)(C)NC(=O)[C@@H](N)Cc1c[nH]cn1)C(=O)N[C@@H](Cc1ccc(O)cc1)C(=O)N[C@H](C(=O)N[C@@H](CO)C(=O)N[C@@H](CC(=O)O)C(=O)N[C@@H](Cc1ccc(-c2ccccc2)cc1)C(=O)N[C@@H](Cc1ccc(-c2ccccc2)cc1)C(N)=O)[C@@H](C)O [3-12, H2N-His-Aib-Glu-Gly-Thr-Tyr-Thr-Ser-Asp-Bip-Bip-C(O)NH2] (H-H[Aib]EGTYTSD[Bip][Bip]-NH2) | – | 7.3 nM | –
